Results as given in PubChem BioAssay AID540311 (Sanford-Burnham Center for Chemical Genomics, 2011).
Activity calls are given as the source filed them.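 The calls were made as follows: active = mean EC50 at or below 20 µM; inactive = the rest.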

System: CHO-XBP1 cells, IRE1-XBP1 luciferase reporter luminescence
Assay: IRE1-XBP1 adaptive UPR arm activators, SAR follow-up, CHO-XBP1 cells, luminescence (AID 540311)

SMILES	EC50
Cc1ccnc(Nc2ncccn2)n1	> 80 µM (inactive)
Cc1cc(-c2ccccc2)nc(Nc2nc(C)c3ccccc3n2)n1	> 80 µM (inactive)
Cc1cc(=O)[nH]c(Nc2nc(C)c3ccccc3n2)n1	> 80 µM (inactive)
COc1cc(-c2ccccc2)nc(Nc2nc(C)c3ccccc3n2)n1	> 80 µM (inactive)
Cc1nc(Nc2nc(-c3ccccc3)cc(=O)[nH]2)nc2ccccc12	12.8 µM
Cc1ccnc(Nc2nc(-c3ccccc3)cc(=O)[nH]2)n1	> 80 µM (inactive)
Cc1nc(Nc2ncccn2)nc2ccccc12	> 80 µM (inactive)
Cc1nc(Nc2nccc(-c3ccccc3)n2)nc2ccccc12	> 80 µM (inactive)
